Like-named read-outs stand apart in the source and are kept apart here.
Tests used:
Assay in all cases: selectivity profiling in a panel of 340 wild-type kinases (Reaction Biology Europe)
Assay type in all cases: binding
340 wild-type kinases [1] = molecular target: T1, 340 wild-type kinases (Homo sapiens, UniProt Q9BYT3)
T1 construct: purchased Reaction Biology Europe

340 wild-type kinases [2] = molecular target: T2, 340 wild-type kinases (Homo sapiens, UniProt Q9HAZ1)
T2 construct: purchased Reaction Biology Europe
T2 sequence (Q9HAZ1 whole entry): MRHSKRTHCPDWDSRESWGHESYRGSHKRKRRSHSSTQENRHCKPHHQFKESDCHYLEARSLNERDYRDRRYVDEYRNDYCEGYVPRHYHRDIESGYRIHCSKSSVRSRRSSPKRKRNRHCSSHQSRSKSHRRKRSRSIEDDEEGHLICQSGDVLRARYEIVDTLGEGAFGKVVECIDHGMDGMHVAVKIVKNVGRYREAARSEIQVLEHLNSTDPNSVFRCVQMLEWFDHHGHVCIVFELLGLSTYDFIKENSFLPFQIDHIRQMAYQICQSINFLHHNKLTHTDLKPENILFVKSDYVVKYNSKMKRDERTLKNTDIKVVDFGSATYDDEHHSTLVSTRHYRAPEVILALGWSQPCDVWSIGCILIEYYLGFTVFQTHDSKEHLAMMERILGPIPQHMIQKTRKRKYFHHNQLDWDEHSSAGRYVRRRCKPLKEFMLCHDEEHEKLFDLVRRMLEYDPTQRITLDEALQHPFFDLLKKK

340 wild-type kinases [3] = molecular target: T3, 340 wild-type kinases (Homo sapiens, UniProt Q32MK0)
T3 construct: purchased Reaction Biology Europe
T3 sequence (Q32MK0 1-819): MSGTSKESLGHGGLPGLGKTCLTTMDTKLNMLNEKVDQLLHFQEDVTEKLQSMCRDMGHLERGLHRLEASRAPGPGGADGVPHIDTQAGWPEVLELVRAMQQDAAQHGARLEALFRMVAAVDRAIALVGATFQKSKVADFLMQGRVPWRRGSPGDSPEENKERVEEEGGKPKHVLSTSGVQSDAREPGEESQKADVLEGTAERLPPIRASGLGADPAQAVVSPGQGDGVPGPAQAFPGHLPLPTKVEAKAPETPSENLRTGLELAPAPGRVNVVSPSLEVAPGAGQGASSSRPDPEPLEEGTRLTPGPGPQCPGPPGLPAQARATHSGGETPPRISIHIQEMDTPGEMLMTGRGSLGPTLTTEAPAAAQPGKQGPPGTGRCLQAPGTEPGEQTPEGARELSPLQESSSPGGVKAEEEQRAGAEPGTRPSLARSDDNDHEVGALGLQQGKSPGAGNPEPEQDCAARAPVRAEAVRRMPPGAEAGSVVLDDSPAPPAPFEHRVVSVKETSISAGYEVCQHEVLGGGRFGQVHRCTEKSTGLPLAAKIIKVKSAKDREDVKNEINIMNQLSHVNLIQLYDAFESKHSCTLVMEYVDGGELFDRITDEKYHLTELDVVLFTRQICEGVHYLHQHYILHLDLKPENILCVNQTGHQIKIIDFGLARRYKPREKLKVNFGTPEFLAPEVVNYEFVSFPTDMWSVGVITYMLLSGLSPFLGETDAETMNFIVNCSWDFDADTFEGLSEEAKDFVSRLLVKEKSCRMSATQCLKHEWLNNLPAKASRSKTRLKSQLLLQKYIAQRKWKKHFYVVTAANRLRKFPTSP

340 wild-type kinases [4] = molecular target: T4, 340 wild-type kinases (Homo sapiens, UniProt Q8NE63)
T4 construct: purchased Reaction Biology Europe
T4 sequence (Q8NE63 1-616): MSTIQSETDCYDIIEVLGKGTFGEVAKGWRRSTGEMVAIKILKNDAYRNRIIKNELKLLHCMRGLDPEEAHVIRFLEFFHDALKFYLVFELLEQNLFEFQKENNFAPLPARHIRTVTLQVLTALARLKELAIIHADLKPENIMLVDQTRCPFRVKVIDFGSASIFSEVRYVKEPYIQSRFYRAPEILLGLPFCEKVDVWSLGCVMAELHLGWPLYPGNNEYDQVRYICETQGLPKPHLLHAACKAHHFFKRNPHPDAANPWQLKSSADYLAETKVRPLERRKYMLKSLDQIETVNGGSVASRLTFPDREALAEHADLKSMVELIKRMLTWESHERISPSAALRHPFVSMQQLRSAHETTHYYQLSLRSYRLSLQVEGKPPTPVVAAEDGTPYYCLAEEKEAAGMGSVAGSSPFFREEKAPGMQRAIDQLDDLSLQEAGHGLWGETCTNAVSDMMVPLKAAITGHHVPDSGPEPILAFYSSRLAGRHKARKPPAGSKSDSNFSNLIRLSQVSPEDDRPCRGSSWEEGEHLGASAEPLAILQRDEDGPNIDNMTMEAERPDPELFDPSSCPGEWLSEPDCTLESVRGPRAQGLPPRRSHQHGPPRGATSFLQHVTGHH

340 wild-type kinases [5] = molecular target: T5, 340 wild-type kinases (Homo sapiens, UniProt Q14289)
T5 construct: purchased Reaction Biology Europe
T5 sequence (Q14289 whole entry): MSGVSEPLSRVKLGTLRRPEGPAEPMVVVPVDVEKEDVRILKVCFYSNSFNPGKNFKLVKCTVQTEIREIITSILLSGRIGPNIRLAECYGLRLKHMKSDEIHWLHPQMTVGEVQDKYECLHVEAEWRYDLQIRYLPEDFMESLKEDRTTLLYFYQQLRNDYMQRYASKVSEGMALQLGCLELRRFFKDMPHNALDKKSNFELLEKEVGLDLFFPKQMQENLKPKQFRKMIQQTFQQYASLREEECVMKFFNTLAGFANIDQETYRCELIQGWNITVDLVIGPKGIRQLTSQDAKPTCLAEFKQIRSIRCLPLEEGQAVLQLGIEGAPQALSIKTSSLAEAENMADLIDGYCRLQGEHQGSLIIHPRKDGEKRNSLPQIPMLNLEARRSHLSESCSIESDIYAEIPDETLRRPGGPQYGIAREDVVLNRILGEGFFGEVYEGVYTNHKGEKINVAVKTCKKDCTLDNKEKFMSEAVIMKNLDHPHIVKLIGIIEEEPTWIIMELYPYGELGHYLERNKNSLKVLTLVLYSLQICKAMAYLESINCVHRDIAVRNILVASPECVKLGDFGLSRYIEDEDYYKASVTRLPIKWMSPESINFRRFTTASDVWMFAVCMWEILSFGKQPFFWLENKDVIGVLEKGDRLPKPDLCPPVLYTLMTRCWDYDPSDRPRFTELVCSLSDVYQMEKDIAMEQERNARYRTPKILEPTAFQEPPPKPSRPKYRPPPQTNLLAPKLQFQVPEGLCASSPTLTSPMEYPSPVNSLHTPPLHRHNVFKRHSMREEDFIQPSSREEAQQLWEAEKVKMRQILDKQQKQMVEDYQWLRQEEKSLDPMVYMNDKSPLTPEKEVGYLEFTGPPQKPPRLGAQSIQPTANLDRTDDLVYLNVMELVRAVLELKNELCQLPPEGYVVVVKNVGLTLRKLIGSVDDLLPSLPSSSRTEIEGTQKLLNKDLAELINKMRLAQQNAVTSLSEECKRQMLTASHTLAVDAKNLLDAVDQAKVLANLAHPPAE

340 wild-type kinases [6] = molecular target: T6, 340 wild-type kinases (Homo sapiens, UniProt Q08881)
T6 construct: purchased Reaction Biology Europe
T6 sequence (Q08881 1-620): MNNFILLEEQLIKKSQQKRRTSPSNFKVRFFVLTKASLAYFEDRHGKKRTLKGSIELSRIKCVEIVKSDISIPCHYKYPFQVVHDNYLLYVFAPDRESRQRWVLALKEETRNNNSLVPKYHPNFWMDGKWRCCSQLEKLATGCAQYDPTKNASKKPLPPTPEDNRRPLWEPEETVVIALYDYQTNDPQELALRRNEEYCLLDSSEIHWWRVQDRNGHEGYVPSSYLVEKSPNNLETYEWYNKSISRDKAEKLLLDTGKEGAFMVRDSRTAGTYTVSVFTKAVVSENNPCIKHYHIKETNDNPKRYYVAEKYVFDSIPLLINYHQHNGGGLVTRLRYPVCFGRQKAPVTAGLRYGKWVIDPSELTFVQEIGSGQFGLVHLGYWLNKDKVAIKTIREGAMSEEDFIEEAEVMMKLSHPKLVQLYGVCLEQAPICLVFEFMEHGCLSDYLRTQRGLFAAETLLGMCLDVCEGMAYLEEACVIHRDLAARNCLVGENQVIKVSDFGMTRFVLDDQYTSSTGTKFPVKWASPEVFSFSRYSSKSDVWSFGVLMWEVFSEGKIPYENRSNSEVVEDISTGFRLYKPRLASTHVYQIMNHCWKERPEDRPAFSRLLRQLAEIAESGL

340 wild-type kinases [7] = molecular target: T7, 340 wild-type kinases (Homo sapiens, UniProt P23458)
T7 construct: purchased Reaction Biology Europe
T7 sequence (P23458 whole entry): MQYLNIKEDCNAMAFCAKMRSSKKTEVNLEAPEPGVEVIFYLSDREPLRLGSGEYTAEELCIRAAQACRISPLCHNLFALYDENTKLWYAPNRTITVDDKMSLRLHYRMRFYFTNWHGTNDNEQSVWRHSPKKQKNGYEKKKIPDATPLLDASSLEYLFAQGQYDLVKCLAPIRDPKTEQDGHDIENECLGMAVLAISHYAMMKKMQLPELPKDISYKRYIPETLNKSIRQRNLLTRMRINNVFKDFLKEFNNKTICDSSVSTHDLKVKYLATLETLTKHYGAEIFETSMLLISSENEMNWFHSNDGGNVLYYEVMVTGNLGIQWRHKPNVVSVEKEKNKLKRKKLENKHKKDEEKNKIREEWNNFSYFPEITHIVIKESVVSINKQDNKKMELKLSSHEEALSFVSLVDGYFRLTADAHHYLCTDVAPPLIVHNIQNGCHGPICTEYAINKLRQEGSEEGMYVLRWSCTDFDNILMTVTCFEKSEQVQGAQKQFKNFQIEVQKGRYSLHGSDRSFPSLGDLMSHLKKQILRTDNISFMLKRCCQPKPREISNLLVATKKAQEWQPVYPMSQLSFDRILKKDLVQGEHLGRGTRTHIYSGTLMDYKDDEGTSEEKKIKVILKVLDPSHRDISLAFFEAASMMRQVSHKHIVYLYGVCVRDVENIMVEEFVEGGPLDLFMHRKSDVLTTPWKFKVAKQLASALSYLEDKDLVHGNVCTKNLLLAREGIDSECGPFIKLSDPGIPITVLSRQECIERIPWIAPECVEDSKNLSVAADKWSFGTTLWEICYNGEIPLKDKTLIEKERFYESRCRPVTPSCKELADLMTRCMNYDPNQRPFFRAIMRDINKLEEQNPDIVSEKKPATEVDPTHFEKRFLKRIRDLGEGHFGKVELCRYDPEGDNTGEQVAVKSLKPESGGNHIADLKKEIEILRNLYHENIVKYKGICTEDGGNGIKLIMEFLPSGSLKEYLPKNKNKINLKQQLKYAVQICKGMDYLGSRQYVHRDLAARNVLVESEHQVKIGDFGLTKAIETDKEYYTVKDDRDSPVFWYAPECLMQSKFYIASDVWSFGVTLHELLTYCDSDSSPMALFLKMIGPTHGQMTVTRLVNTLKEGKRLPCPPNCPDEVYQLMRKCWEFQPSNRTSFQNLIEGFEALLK

340 wild-type kinases [8] = molecular target: T8, 340 wild-type kinases (Homo sapiens, UniProt Q8N5S9)
T8 construct: purchased Reaction Biology Europe
T8 sequence (Q8N5S9 whole entry): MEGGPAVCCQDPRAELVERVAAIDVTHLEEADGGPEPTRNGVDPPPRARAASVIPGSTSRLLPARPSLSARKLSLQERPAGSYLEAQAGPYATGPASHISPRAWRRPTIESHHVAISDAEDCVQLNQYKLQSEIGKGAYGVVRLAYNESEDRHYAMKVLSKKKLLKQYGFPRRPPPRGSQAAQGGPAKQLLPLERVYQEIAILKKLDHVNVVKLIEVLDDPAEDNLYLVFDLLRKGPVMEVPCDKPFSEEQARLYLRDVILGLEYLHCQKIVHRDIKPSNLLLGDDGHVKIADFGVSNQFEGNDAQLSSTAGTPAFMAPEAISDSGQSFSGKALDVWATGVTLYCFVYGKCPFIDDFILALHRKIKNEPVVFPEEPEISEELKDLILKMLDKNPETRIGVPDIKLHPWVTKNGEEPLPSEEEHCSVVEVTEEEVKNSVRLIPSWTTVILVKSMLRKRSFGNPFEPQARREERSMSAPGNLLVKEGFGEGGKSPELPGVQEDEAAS

T1 sequence (Q9BYT3 whole entry): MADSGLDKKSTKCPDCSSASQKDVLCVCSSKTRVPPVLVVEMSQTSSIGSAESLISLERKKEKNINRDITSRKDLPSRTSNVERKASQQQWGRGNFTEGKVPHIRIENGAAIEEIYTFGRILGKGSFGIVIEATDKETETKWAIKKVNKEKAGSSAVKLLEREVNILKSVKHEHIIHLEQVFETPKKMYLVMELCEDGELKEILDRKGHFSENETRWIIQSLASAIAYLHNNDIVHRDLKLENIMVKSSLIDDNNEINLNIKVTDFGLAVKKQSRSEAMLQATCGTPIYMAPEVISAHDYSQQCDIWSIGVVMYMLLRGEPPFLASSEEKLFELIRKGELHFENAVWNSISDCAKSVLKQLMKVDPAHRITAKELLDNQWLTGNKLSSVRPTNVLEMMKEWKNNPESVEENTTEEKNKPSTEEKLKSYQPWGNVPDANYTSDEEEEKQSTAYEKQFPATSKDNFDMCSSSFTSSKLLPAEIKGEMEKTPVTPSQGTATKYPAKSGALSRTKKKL

**Q.** What does the source list for CNC(=O)c1ccc2c(c1)C(=O)c1ccc(Nc3ccc(F)c(NC(=O)C4CC4)c3)cc1CC2 [Compound 2015]?
**A.** remaining activity at 0.2 µM (340 wild-type kinases [1]; 0.2 µM 2015, read-out: STK33 residual activity): 99.1%; remaining activity at 1 µM (340 wild-type kinases [1]; 1 µM 2015, read-out: STK33 residual activity): 96.3%; remaining activity at 0.2 µM (340 wild-type kinases [1]; STK33, 0.2 µM, read-out: residual activity): 99.1%; remaining activity at 1 µM (340 wild-type kinases [1]; STK33, 1 µM, read-out: residual activity): 96.3%; remaining activity at 0.2 µM (340 wild-type kinases [2]; 0.2 µM 2015, read-out: CLK4 residual activity): 120%; remaining activity at 0.2 µM (340 wild-type kinases [2]; CLK4, 0.2 µM, read-out: residual activity): 120%; remaining activity at 1 µM (340 wild-type kinases [2]; CLK4, 1 µM, read-out: residual activity): 118%; remaining activity at 0.2 µM (340 wild-type kinases [3]; 0.2 µM 2015, read-out: MYLK3 residual activity): 106%; remaining activity at 1 µM (340 wild-type kinases [3]; 1 µM 2015, read-out: MYLK3 residual activity): 93.5%; remaining activity at 0.2 µM (340 wild-type kinases [3]; MYLK3, 0.2 µM, read-out: residual activity): 106%; remaining activity at 1 µM (340 wild-type kinases [3]; MYLK3, 1 µM, read-out: residual activity): 93.5%; remaining activity at 0.2 µM (340 wild-type kinases [4]; 0.2 µM 2015, read-out: HIPK4 residual activity): 96.4%; remaining activity at 1 µM (340 wild-type kinases [4]; 1 µM 2015, read-out: HIPK4 residual activity): 95.4%; remaining activity at 0.2 µM (340 wild-type kinases [4]; HIPK4, 0.2 µM, read-out: residual activity): 96.4%; remaining activity at 1 µM (340 wild-type kinases [4]; HIPK4, 1 µM, read-out: residual activity): 95.5%; remaining activity at 0.2 µM (340 wild-type kinases [5]; 0.2 µM 2015, read-out: PYK2 residual activity): 98.8%; remaining activity at 1 µM (340 wild-type kinases [5]; 1 µM 2015, read-out: PYK2 residual activity): 86.1%; remaining activity at 0.2 µM (340 wild-type kinases [5]; PYK2, 0.2 µM, read-out: residual activity): 98.8%; remaining activity at 1 µM (340 wild-type kinases [5]; PYK2, 1 µM, read-out: residual activity): 86.1%; remaining activity at 0.2 µM (340 wild-type kinases [6]; 0.2 µM 2015, read-out: ITK residual activity): 89.4%; remaining activity at 1 µM (340 wild-type kinases [6]; 1 µM 2015, read-out: ITK residual activity): 87%; remaining activity at 0.2 µM (340 wild-type kinases [6]; ITK, 0.2 µM, read-out: residual activity): 89.4%; remaining activity at 1 µM (340 wild-type kinases [6]; ITK, 1 µM, read-out: residual activity): 87%; remaining activity at 0.2 µM (340 wild-type kinases [7]; 0.2 µM 2015, read-out: JAK1 residual activity): 86.7%; remaining activity at 1 µM (340 wild-type kinases [7]; 1 µM 2015, read-out: JAK1 residual activity): 99.8%; remaining activity at 0.2 µM (340 wild-type kinases [7]; JAK1, 0.2 µM, read-out: residual activity): 86.7%; remaining activity at 1 µM (340 wild-type kinases [7]; JAK1, 1 µM, read-out: residual activity): 99.8%; remaining activity at 0.2 µM (340 wild-type kinases [8]; 0.2 µM 2015, read-out: CAMKK1 residual activity): 123%; remaining activity at 1 µM (340 wild-type kinases [8]; 1 µM 2015, read-out: CAMKK1 residual activity): 106%; remaining activity at 0.2 µM (340 wild-type kinases [8]; CAMKK1, 0.2 µM, read-out: residual activity): 123%; remaining activity at 1 µM (340 wild-type kinases [8]; CAMKK1, 1 µM, read-out: residual activity): 106%

Reference: article PMC11864979, “First-in-class ultralong-target-residence-time p38α inhibitors as a mitosis-targeted therapy for colorectal cancer” (Nature Cancer, 2025)
